Data published in patent publication US11034648B2, “Cystobactamide derivatives” (priority 2017, dated 2021).
Converted amounts (≈) assume the structure as drawn.

Assays:
Format in all cases: cell-based
S. aureus Newman = assay: MIC, microbroth dilution susceptibility assay; conditions: Staphylococcus aureus, NEWMAN; small panel, Tables 1a/1b; read-out: MIC S. aureus Newman
Protocol: (§1) Cystobactamid derivatives synthesized were tested against relevant Gram negative and positive bacteria of clinical interest. Experimental procedures used for the biological characterization of the compounds are the same as previously described in WO 2016/082934.
(§2) Bacterial strains used in susceptibility assays (minimum inhibitory concentration, MIC) were either part of our internal strain collection or purchased from the German Collection of Microorganisms and Cell Cultures (Deutsche Sammlung von Mikroorganismen und Zellkulturen, DSMZ) and the American Type Culture Collection (ATCC). The susceptible E. coli strain (WT) and fluoroquinolone-resistant mutants E. coli WT-3 and WT-III were kindly provided by Prof Dr. P. Heisig, Pharmaceutical Biology and Microbiology, University of Hamburg, Germany. The efflux-deficient strain P. aeruginosa ΔmexAB was kindly provided by Prof Dr. S. Häußler, Institute for Molecular Bacteriology, TWINCORE, Hannover, Germany. All compounds were prepared as DMSO stocks and MIC values were determined in standard microbroth dilution assays in 96-well MTPs as described in Baumann et al., Angew Chem Int Ed Engl. 2014; 53(52):14605-9. In brief, overnight cultures of bacteria were diluted in either tryptic soy broth (TSB: 1.7% peptone casein, 0.3% peptone soymeal, 0.25% glucose, 0.5% NaCl, 0.25% K2HPO4; pH 7.3; S. pneumoniae and E. faecalis) or cation-adjusted Müller-Hinton Broth (BBL™, BD; all other bacteria) and adjusted to 10^4-10^6 cfu/mL. Bacteria were grown in the presence of the derivatives in serial dilution for approx. 16 h at 30-37° C. MIC values were determined and were defined as the antibiotic concentration at which no visual growth of bacteria was observed.

E. coli WT DSM-1116 = assay: MIC, microbroth dilution susceptibility assay; conditions: Escherichia coli, DSM1116; small panel, Tables 1a/1b; no visual growth after approx. 16 h; read-out: MIC E. coli WT DSM-1116
Protocol: as §1, §2

P. aeruginosa WT PA14 = assay: MIC, microbroth dilution susceptibility assay; conditions: Pseudomonas aeruginosa, PA14, small panel, Tables 1a/1b; read-out: MIC P. aeruginosa WT PA14
Protocol: as §1, §2

P. aeruginosa ΔmexAB = assay: microbe, parasite or virus in culture; conditions: Pseudomonas aeruginosa, 16 h, read-out: MIC P. aeruginosa ΔmexAB, efflux-deficient strain; small panel, Tables 1a/1b
Protocol: as §1, §2

E. coli ΔtolC = assay: microbe, parasite or virus in culture; conditions: Escherichia coli, 16 h, read-out: MIC E. coli ΔtolC, small panel, Tables 1a/1b; no visual growth after approx. 16 h
Protocol: as §1, §2

SMILES | MIC (S. aureus Newman) | MIC (E. coli WT DSM-1116) | MIC (P. aeruginosa WT PA14) | MIC (P. aeruginosa ΔmexAB) | MIC (E. coli ΔtolC)
CC(C)Oc1c(NC(=O)c2ccc(NC(=O)[C@H](CC(N)=O)NC(=O)c3ccc(NC(=O)c4ccc(NC(N)=O)cc4)cc3)cc2)ccc(C(=O)Nc2ccc(C(=O)O)cc2)c1O [Compound 46, (S)-4-(4-(4-(4-amino-4-oxo-2-(4-(4-ureidobenzamido)benzamido)butanamido)benzamido)-2-hydroxy-3-isopropoxybenzamido)benzoic acid] | 64 µg/mL (≈ 75.8 µM) | 0.5 µg/mL (≈ 0.592 µM) | > 64 µg/mL | 4 µg/mL (≈ 4.73 µM) | 0.03 µg/mL (≈ 0.0355 µM)
CC(C)Oc1c(NC(=O)c2ccc(NC(=O)[C@H](CC(N)=O)NC(=O)c3ccc(NC(=O)c4ccc(NC(=O)c5ccc([N+](=O)[O-])cc5)cc4)cc3)cc2)ccc(C(=O)Nc2ccc(C(=O)O)cc2)c1O [Compound 47, (S)-4-(4-(4-(4-amino-2-(4-(4-(4-nitrobenzamido)benzamido)benzamido)-4-oxobutanamido)benzamido)-2-hydroxy-3-isopropoxybenzamido)benzoic acid] | > 64 µg/mL | 2 µg/mL (≈ 2.1 µM) | > 64 µg/mL | > 64 µg/mL | > 64 µg/mL
CC(C)Oc1c(NC(=O)c2ccc(NC(=O)[C@H](CC(N)=O)NC(=O)c3ccc(NC(=O)c4ccc([N+](=O)[O-])c(OC(C)C)c4O)cc3)cc2)ccc(C(=O)Nc2ccc(C(=O)O)cc2)c1O [Compound 48, (S)-4-(4-(4-(4-amino-2-(4-(2-hydroxy-3-isopropoxy-4-nitrobenzamido)benzamido)-4-oxobutanamido)benzamido)-2-hydroxy-3-isopropoxybenzamido)benzoic acid] | > 64 µg/mL | > 64 µg/mL | > 64 µg/mL | > 64 µg/mL | > 64 µg/mL
Cc1cc(C#N)ccc1C(=O)Nc1ccc(C(=O)N[C@@H](CC(N)=O)C(=O)Nc2ccc(C(=O)Nc3ccc(C(=O)Nc4ccc(C(=O)O)cc4)c(O)c3OC(C)C)cc2)cc1 [Compound 50, (S)-4-(4-(4-(4-amino-2-(4-(4-cyano-2-methylbenzamido)benzamido)-4-oxobutanamido)benzamido)-2-hydroxy-3-isopropoxybenzamido)benzoic acid] | 64 µg/mL (≈ 77.5 µM) | 0.5 µg/mL (≈ 0.605 µM) | > 64 µg/mL | 2 µg/mL (≈ 2.42 µM) | 0.03 µg/mL (≈ 0.0363 µM)
CC(C)Oc1c(NC(=O)c2ccc(NC(=O)[C@H](CC(N)=O)NC(=O)c3ccc(NC(=O)c4ccc(C#N)c(F)c4)cc3)cc2)ccc(C(=O)Nc2ccc(C(=O)O)cc2)c1O [Compound 51, (S)-4-(4-(4-(4-amino-2-(4-(4-cyano-3-fluorobenzamido)benzamido)-4-oxobutanamido)benzamido)-2-hydroxy-3-isopropoxybenzamido)benzoic acid] | 2 µg/mL (≈ 2.41 µM) | 0.25 µg/mL (≈ 0.301 µM) | 8 µg/mL (≈ 9.64 µM) | 0.5 µg/mL (≈ 0.603 µM) | ≤ 0.03 µg/mL
Cc1cc(C(=O)Nc2ccc(C(=O)N[C@@H](CC(N)=O)C(=O)Nc3ccc(C(=O)Nc4ccc(C(=O)Nc5ccc(C(=O)O)cc5)c(O)c4OC(C)C)cc3)cc2)ccc1C#N [Compound 52, (S)-4-(4-(4-(4-amino-2-(4-(4-cyano-3-methylbenzamido)benzamido)-4-oxobutanamido)benzamido)-2-hydroxy-3-isopropoxybenzamido)benzoic acid] | 2 µg/mL (≈ 2.42 µM) | 0.5 µg/mL (≈ 0.605 µM) | 4 µg/mL (≈ 4.84 µM) | 0.5 µg/mL (≈ 0.605 µM) | 0.03 µg/mL (≈ 0.0363 µM)
CC(C)Oc1c(NC(=O)c2ccc(NC(=O)[C@H](CC(N)=O)NC(=O)c3ccc(NC(=O)C(C)Oc4ccccc4)cc3)cc2)ccc(C(=O)Nc2ccc(C(=O)O)cc2)c1O (stereo partly drawn) [Compound 54, 4-(4-(4-((2S)-4-amino-4-oxo-2-(4-(2-phenoxypropanamido)benzamido)butanamido)benzamido)-2-hydroxy-3-isopropoxybenzamido)benzoic acid] | > 64 µg/mL | > 64 µg/mL | > 64 µg/mL | > 64 µg/mL | 4 µg/mL (≈ 4.81 µM)
CC(C)Oc1c(NC(=O)c2ccc(NC(=O)[C@H](CC(N)=O)NC(=O)c3ccc(NC(=O)c4ccncc4)cc3)cc2)ccc(C(=O)Nc2ccc(C(=O)O)cc2)c1O [Compound 55, (S)-4-(4-(4-(4-amino-2-(4-(isonicotinamido)benzamido)-4-oxobutanamido)benzamido)-2-hydroxy-3-isopropoxybenzamido)benzoic acid] | > 64 µg/mL | 1 µg/mL (≈ 1.27 µM) | > 64 µg/mL | 2 µg/mL (≈ 2.54 µM) | < 0.03 µg/mL
